Data published in article PMC9428149, “Tackling recalcitrant Pseudomonas aeruginosa infections in critical illness via anti-virulence monotherapy” (Nature Communications, 2022).
In brackets after ≈: the same amount, converted by molar mass. Read-outs that look alike come from different tables or passages of the source.

Key:
MvfR protein (MvfRC87) = target: T1, MvfR protein (MvfRC87) (Pseudomonas aeruginosa, UniProt Q9I4X0); type: binding; conditions: SPR
T1 construct: The MvfRC87 protein purified as in Xiao et. al., 2006; made in house
In short: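 MvfRC87 amine-coupled to a CM7 chip (3000–5000 RU) and binding measured by SPR. Double-reference-corrected responses 5 s before end of association plotted against concentration, for inhibitor alone and with native ligand PQS, compared with responses calculated for different binding sites.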

[1] = tested on: 16 MDR P. aeruginosa clinical isolates; assay: Pyocyanin production in MDR clinical isolates; conditions: Pseudomonas aeruginosa, 18 h, Control about 100, replicates
Protocol: The over-day culture was grown to OD600nm 1.5., diluted again at 1:10,000 in 5 mL LB and incubated with 10 μM of the test compound or the vehicle control for 18 hours at 37 °C and 200 rpm in an incubator shaker. After 18 h, 1 mL of culture was centrifuged for 2 min at 20.000 x g. The supernatant was transferred to a new tube, 200 μL of this were loaded in a flat-bottom 96-well plate, and the pyocyanin levels were quantified by measuring at OD690nm in the infinite F200 plate reader using the Magellan software (Tecan, Switzerland). The same procedure was also followed for the pyocyanin production assessment for all the P. aeruginosa clinical isolates assessed in this study. The percent of pyocyanin was calculated compared to the PA14 culture grown in the absence of compounds.
Pyocyanin production was measured in 16 P.
aeruginosa clinical isolates 18hr post-growth in the presence or absence of 10 µM of each NAM
compound. The percent of pyocyanin production was calculated by comparing the same strain grown
in the presence of the vehicle control. b.

PA14 AT/P cells = assay: AT/P cells formation assay in PA14; type: cell-based, Pseudomonas aeruginosa; conditions: Pseudomonas aeruginosa, PA14, 24 h, read-out: inhibition of AT/P cells formation
[2] = Solubility in iPBS pH 7.4 by HPLC; type: physicochemical; conditions: isotonic phosphate buffer (iPBS), aqueous with cosolvent or surfactant or cyclodextrin, kinetic from dmso stock; iPBS pH 7.4, HPLC; read-out: Solubility (M) in PBS
In short: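 Compounds from 10 mM DMSO stock shaken 4 h at room temperature in iPBS pH 7.4 (10 mM PBS, 2.7 mM KCl, 140 mM NaCl, 0.05% Tween), then filtered. Concentration measured by HPLC-UV against a known standard solution; solubility given as ratio of compound in test solution to standard.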

[3] = tested on: PA14 isogenic mutant ΔmvfR AT/P cells; assay: AT/P cell formation in ΔmvfR mutant (off-target); conditions: Pseudomonas aeruginosa, PA14, 24 h, read-out: AT/P cell formation, ΔmvfR + compound; PA14 about 100; single replicates (Figure 4b)
Protocol: Cells were grown in the presence of 10 μg mL^−1 meropenem, with or without 10 µM of the compounds for 24 h. Values were normalized to cells grown for 4 h in the absence of antibiotics and compounds. The ∆mvfR cells grown with antibiotics and vehicles were considered control, and the percentage values were calculated compared to control. c Biofilm formation of mutant ∆mvfR cells with or without compound. […] The number of biological replicates for each compound and strain is depicted in the graph. The error bars denote ±SEM.
The AT/P cell formation assay was performed according to the method previously described in Starkey et al., 2014 (persister cell assay). The over-day culture was incubated at 37 °C with shaking at 200 rpm until the culture OD600nm was 3.0. The culture was then diluted at 1:100 and grown in the same conditions for 4 h. After 4 h, 200 µL were collected, and serial dilutions were plated on LB agar plates for CFU quantification (as normalizers). The remainder of the culture was treated with meropenem to a final concentration of 100 × MIC (Minimum Inhibitory Concentration; 10 mg L^−1) and compounds at a final concentration of 10 µM. After 24 h, culture aliquots were 10-fold serially diluted in LB broth and plated on LB agar for CFU quantification. The AT/P fraction was determined as the normalizers (pre-antibiotic) ratio divided by the AT/P fraction (24 h post-antibiotic)[22].

[4] = tested on: MvfR-regulated small molecules in PA14; assay: Production of HAQs, 2-AA, DHQ and AA in PA14 cultures (LC-MS); conditions: Pseudomonas aeruginosa
Protocol: The HAQs HHQ, PQS, HQNO, and non-HAQs: 2-AA and DHQ produced by PA14 cells were quantified in the presence of NAMs. The overnight grown starter culture was diluted 1:100 in 5 mL LB media in a glass tube and was allowed to grow in the presence (50 µM) or absence of compound at 37 °C and 200 rpm in an incubator shaker until OD600 was 3. Bacterial cultures were subsequently mixed 1:1 (400 μL: 400 μL) with 100% methanol containing 20 ppm (20 μg mL^−1) of tetradeutero-PQS (PQS-D4) and 10 ppm of tetradeutero-HHQ (HHQ-D4) in a 1.5 mL Eppendorf tube. The mixture was vortexed for 5 seconds and spun down for 5 minutes at 12,000 x g. A 700 μL aliquot of the supernatant was removed and stored in glass vials at −20 °C until further liquid chromatography-mass spectrophotometry (LC/MS) analysis as previously described in Lepine et al., 2003[66]. LC/MC analysis was performed using a Micromass Quattro II triple quadrupole mass spectrometer (Micromass Canada, Pointe-Claire, Canada) in positive electrospray ionization mode, interfaced to an HP1100 HPLC equipped with a 4.5 × 150 mm reverse-phase C8 column.
GraphPad Prism 9.2.0 software was used to plot the IC50 curve against the percent inhibition of these small molecules’ production at each concentration.

ΔmvfR biofilm = assay: Biofilm formation of ΔmvfR mutant (off-target); conditions: Pseudomonas aeruginosa, PA14, 24 h, read-out: Biofilm formation, ΔmvfR + compound; PA14 about 100; single replicates (Figure 4c)
Protocol: Biofilm was grown in the 96-well microtiter plate at 37 °C for 24 h containing M63 minimal media in the presence of 10 µM of the compounds or vehicle. The biofilm grown with the vehicle was considered as a control. The percentage value was calculated in comparison to the PA14 control. a–c Data represent at least n = 3, each dot on the graph represents one biological replicate. The number of biological replicates for each compound and strain is depicted in the graph. The error bars denote ±SEM.
The overnight grown starter culture was diluted 1:1000 in 5 mL LB media in a glass tube and was incubated at 37 °C and 200 rpm in an incubator shaker until the culture reached an OD600nm 3.0. The culture was then diluted at 1:100 in M63 minimal media supplemented with 0.2% glucose, 0.5% Casamino Acids, and 1 mM MgSO4. Initiation of the Biofilm formation was performed in the 96 well plates; 200 µL of diluted culture was added in the wells with (10 µM) or without compounds. The cultures were allowed to grow at 37 °C in static conditions for 24 hours. Thereafter, planktonic culture was removed from the wells, and wells were washed three times with distilled water (DW). Biofilm was stained with 0.1% crystal violet and incubated for 15 min at room temperature (RT). Access dye was removed from the wells and washed off three times with DW, and 200 µL ethanol: acetone (80:20) was added to the wells. The plate was incubated for 30 min at RT, and the OD was measured by spectrophotometry at 570 nm in the infinite F200 plate reader using the Magellan software (Tecan, Switzerland). Percent biofilm formation was calculated in comparison to PA14 culture that was grown in the absence of compounds.

[5] = tested on: pyocyanin production in PA14; assay: Pyocyanin production assay; conditions: Pseudomonas aeruginosa; for activity at 50 µM: PA14, 18 h, read-out: % Production Pyocyanin; for IC50: PA14, read-out: IC50 pyocyanin production
Protocol: The over-day culture was grown to OD600nm 1.5., diluted again at 1:10,000 in 5 mL LB and incubated with 10 μM of the test compound or the vehicle control for 18 hours at 37 °C and 200 rpm in an incubator shaker. After 18 h, 1 mL of culture was centrifuged for 2 min at 20.000 x g. The supernatant was transferred to a new tube, 200 μL of this were loaded in a flat-bottom 96-well plate, and the pyocyanin levels were quantified by measuring at OD690nm in the infinite F200 plate reader using the Magellan software (Tecan, Switzerland). […] The percent of pyocyanin was calculated compared to the PA14 culture grown in the absence of compounds.
To determine the IC50 of pyocyanin production, we followed the same process as above. […] Using GraphPad Prism Software, the IC50 curve was plotted against percent inhibition of pyocyanin production at each concentration using PA14 in the absence of compounds as a control.

[6] = tested on: mvfR mutant constitutively expressing the pqsABCDE operon; type: cell-based; conditions: Pseudomonas aeruginosa, control about 100, single replicates (Figure 4a)
[7] = tested on: pqsA promoter (PA14 PpqsA-GFPASV); assay: pqsA-GFP reporter expression; type: cell-based, Pseudomonas aeruginosa; conditions: Pseudomonas aeruginosa; for activity at 50 µM: PA14, read-out: % Production pqsA-GFP; for IC50: PA14, read-out: IC50 pqsA-GFP expression, PA14, 13 concentrations
[8] = read-out: Pyocyanin production relative to Control, clinical isolate LGR-4325
[9] = read-out: Pyocyanin production relative to Control, clinical isolate LGR-4326
[10] = read-out: Pyocyanin production relative to Control, clinical isolate LGR-4327
[11] = read-out: Pyocyanin production relative to Control, clinical isolate LGR-4328
[12] = read-out: Pyocyanin production relative to Control, clinical isolate LGR-4330
[13] = read-out: Pyocyanin production relative to Control, clinical isolate LGR-4331 (first section, r117)
[14] = read-out: Pyocyanin production relative to Control, clinical isolate LGR-4331 (second section, r140)
[15] = read-out: Pyocyanin production relative to Control, clinical isolate LGR-4333
[16] = read-out: Pyocyanin production relative to Control, clinical isolate LGR-4343
[17] = read-out: Pyocyanin production relative to Control, clinical isolate LGR-4344
[18] = read-out: Pyocyanin production relative to Control, clinical isolate LGR-4348
[19] = read-out: Pyocyanin production relative to Control, clinical isolate LGR-4356
[20] = read-out: Pyocyanin production relative to Control, clinical isolate LGR-4362
[21] = read-out: Pyocyanin production relative to Control, clinical isolate LGR-4363
[22] = read-out: Pyocyanin production relative to Control, clinical isolate LGR-4364 (first section, r326)
[23] = read-out: Pyocyanin production relative to Control, clinical isolate LGR-4364 (second section, r349)
[24] = PA14, read-out: % Production 2-AA
[25] = PA14, read-out: % Production AA
[26] = PA14, read-out: % Production DHQ
[27] = PA14, read-out: % Production HHQ
[28] = PA14, read-out: % Production HQNO
[29] = PA14, read-out: % Production PQS
[30] = PA14, read-out: HHQ production inhibition
[31] = PA14, read-out: HQNO production inhibition
[32] = PA14, read-out: PQS production inhibition
[33] = PA14, read-out: inhibition of 2-AA production
[34] = PA14, read-out: inhibition of DHQ production
[35] = read-out: 2-AA, ΔmvfR-pqsABCD strain
[36] = read-out: DHQ, ΔmvfR-pqsABCD strain
[37] = read-out: HHQ, ΔmvfR-pqsABCD strain
[38] = read-out: HQNO, ΔmvfR-pqsABCD strain
[39] = read-out: PQS, ΔmvfR-pqsABCD strain

T1 sequence (Q9I4X0 87-332): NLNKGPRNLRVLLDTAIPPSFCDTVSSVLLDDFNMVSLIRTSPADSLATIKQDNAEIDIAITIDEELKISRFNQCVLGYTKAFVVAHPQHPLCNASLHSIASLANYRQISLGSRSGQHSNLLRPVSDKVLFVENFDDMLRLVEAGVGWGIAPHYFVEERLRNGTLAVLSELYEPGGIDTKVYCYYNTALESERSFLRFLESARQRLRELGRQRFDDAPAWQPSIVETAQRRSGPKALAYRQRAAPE

## N#Cc1ccc(NC(=O)CC(=O)Nc2ccc(C#N)nc2)cc1 [D77]
MvfR protein (MvfRC87); Concentration 1.00E-05 M
  Response Unit (RU): 30.9 RU
MvfR protein (MvfRC87); Concentration 1.00E-06 M
  Response Unit (RU): 19.8 RU
MvfR protein (MvfRC87); Concentration 1.00E-07 M
  Response Unit (RU): 5.9 RU
MvfR protein (MvfRC87); Concentration 1.00E-08 M
  Response Unit (RU): 0.7 RU
MvfR protein (MvfRC87); Concentration 3.16E-06 M
  Response Unit (RU): 26.6 RU
MvfR protein (MvfRC87); Concentration 3.16E-07 M
  Response Unit (RU): 11.8 RU
MvfR protein (MvfRC87); Concentration 3.16E-08 M
  Response Unit (RU): 2.2 RU
[1]; [8]
  activity at 10 µM: 15%
[1]; [9]
  activity at 10 µM: 12.1%
[1]; [10]
  activity at 10 µM: 20.6%
[1]; [11]
  activity at 10 µM: 25.6%
[1]; [12]
  activity at 10 µM: 35.1%
[1]; [13]
  activity at 10 µM: 18.8%
[1]; [14]
  activity at 10 µM: 8.31%
[1]; [15]
  activity at 10 µM: 11.8%
[1]; [16]
  activity at 10 µM: 22.6%
[1]; [17]
  activity at 10 µM: 26.1%
[1]; [18]
  activity at 10 µM: 19%
[1]; [19]
  activity at 10 µM: 14.3%
[1]; [20]
  activity at 10 µM: 39.2%
[1]; [21]
  activity at 10 µM: 18.5%
[1]; [22]
  activity at 10 µM: 18.9%
[1]; [23]
  activity at 10 µM: 16.9%
PA14 AT/P cells
  inhibition at 10 µM: ≥ 51%
[2]
  solubility at 4 h: 3.9e-05 M (≈ 11.9 µg/mL)
[3]
  activity at 10 µM: 29.3%
[4]; [24]
  activity at 50 µM: 19%
[4]; [25]
  activity at 50 µM: 777%
[4]; [26]
  activity at 50 µM: 20%
[4]; [27]
  activity at 50 µM: 10%
[4]; [28]
  activity at 50 µM: 64%
[4]; [29]
  activity at 50 µM: 24%
[4]; [30]
  inhibition at 50 µM: 89 to 99%
[4]; [31]
  inhibition at 50 µM: 40 to 92%
[4]; [32]
  inhibition at 50 µM: 76 to 97%
[4]; [33]
  inhibition at 50 µM: 82 to 95%
[4]; [34]
  inhibition at 50 µM: 82 to 96%
ΔmvfR biofilm
  activity at 10 µM: 23.6%
[5]
  activity at 50 µM: 7%
  IC50: 4.07 µM
[6]; [35]
  activity at 50 µM: 104%
[6]; [36]
  activity at 50 µM: 94.5%
[6]; [37]
  activity at 50 µM: 98%
[6]; [38]
  activity at 50 µM: 102%
[6]; [39]
  activity at 50 µM: 90.2%
[7]
  activity at 50 µM: 1%
  IC50: 6.4 µM

## CC(C(=O)Nc1ccc(C#N)cc1)C(=O)Nc1ccc(C#N)cc1 [D80]
MvfR protein (MvfRC87); Concentration 1.00E-05 M
  Response Unit (RU): 35.4 RU
MvfR protein (MvfRC87); Concentration 1.00E-06 M
  Response Unit (RU): 22.9 RU
MvfR protein (MvfRC87); Concentration 1.00E-07 M
  Response Unit (RU): 7 RU
MvfR protein (MvfRC87); Concentration 1.00E-08 M
  Response Unit (RU): 0.6 RU
MvfR protein (MvfRC87); Concentration 3.16E-06 M
  Response Unit (RU): 30.6 RU
MvfR protein (MvfRC87); Concentration 3.16E-07 M
  Response Unit (RU): 13.9 RU
MvfR protein (MvfRC87); Concentration 3.16E-08 M
  Response Unit (RU): 2.6 RU
[1]; [8]
  activity at 10 µM: 40%
[1]; [9]
  activity at 10 µM: 39.5%
[1]; [10]
  activity at 10 µM: 32.3%
[1]; [11]
  activity at 10 µM: 30.6%
[1]; [12]
  activity at 10 µM: 15.3%
[1]; [13]
  activity at 10 µM: 41.5%
[1]; [14]
  activity at 10 µM: 37.9%
[1]; [15]
  activity at 10 µM: 65.7%
[1]; [16]
  activity at 10 µM: 62%
[1]; [17]
  activity at 10 µM: 31.8%
[1]; [18]
  activity at 10 µM: 39.5%
[1]; [19]
  activity at 10 µM: 32.3%
[1]; [20]
  activity at 10 µM: 30.6%
[1]; [21]
  activity at 10 µM: 15.3%
[1]; [22]
  activity at 10 µM: 41.5%
[1]; [23]
  activity at 10 µM: 37.9%
PA14 AT/P cells
  inhibition at 10 µM: ≥ 51%
[2]
  solubility at 4 h: 2.9e-05 M (≈ 9.23 µg/mL)
[3]
  activity at 10 µM: 36%
[4]; [24]
  activity at 50 µM: 16%
[4]; [25]
  activity at 50 µM: 832%
[4]; [26]
  activity at 50 µM: 20%
[4]; [27]
  activity at 50 µM: 8%
[4]; [28]
  activity at 50 µM: 64%
[4]; [29]
  activity at 50 µM: 20%
[4]; [30]
  inhibition at 50 µM: 89 to 99%
[4]; [31]
  inhibition at 50 µM: 40 to 92%
[4]; [32]
  inhibition at 50 µM: 76 to 97%
[4]; [33]
  inhibition at 50 µM: 82 to 95%
[4]; [34]
  inhibition at 50 µM: 82 to 96%
ΔmvfR biofilm
  activity at 10 µM: 42.3%
[5]
  activity at 50 µM: 7%
  IC50: 3.6 µM
[6]; [35]
  activity at 50 µM: 101%
[6]; [36]
  activity at 50 µM: 101%
[6]; [37]
  activity at 50 µM: 96.1%
[6]; [38]
  activity at 50 µM: 86.4%
[6]; [39]
  activity at 50 µM: 99.4%
[7]
  activity at 50 µM: 10%
  IC50: 10.6 µM
